Patent publication US12304912B2, “Fused bicyclic RAF inhibitors and methods for use thereof” (Jazz Pharmaceuticals Ireland Limited, priority 2020, dated 2025)
Where a name gives a salt, the structure may show the parent alone. Read-outs that look alike come from different tables or passages of the source.

Columns and labels:
[1] = test system: constitutive ERK phosphorylation in HCT-116 cells; experiment: HCT-116 AlphaLISA SureFire pERK1/2 cellular assay; format: cell-based, human; settings: HCT116 cells, 2 hr; for IC50: Homo sapiens, HCT-116, read-out: pERK HCT116 (2 hr) Abs pIC50 (converted)
How it was run: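 Cells seeded overnight (30,000/well for 2 h, 15,000/well for 24 h), then dosed in 1% FBS medium with a 10-point series from 1 μM top, 1/3 log steps, for 2 or 24 h at 37 °C. Lysates read by AlphaLISA for Thr202/Tyr204 pERK1/2; absolute IC50 versus DMSO control.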

[2] = Plasma protein binding assay, mouse plasma (mPPB); format: in vitro ADME; settings: 5 μM
How it was run: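 Equilibrium dialysis of 5 μM compound in previously frozen human or mouse plasma against phosphate buffer, 4 h at 37 °C. Both chambers quantified by LC-MS/MS; % free = (1−((PC−PF)/PC))×100.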

[3] = test system: BRAF monomers in A375 cells; experiment: A375 AlphaLISA SureFire pERK1/2 cellular assay (monomer); format: cell-based; settings: Homo sapiens, A-375; A375 cells, 1 hr; read-out: pERK A375 (1 hr) pIC50 (converted)
How it was run: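 BRAF^V600E A375 melanoma cells seeded at 30,000/well in DMEM with 10% FBS, dosed without medium exchange in a 10-point series from 10 μM at 1/2-log steps, 1 h at 37 °C. Phospho-ERK1/2 (Thr202/Tyr204) measured in lysates by AlphaLISA SureFire; absolute IC50 relative to DMSO control.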

WiDr cells = experiment: WiDr CellTiter-Glo 3D cell proliferation assay; format: cell-based; settings: Homo sapiens; WiDr cells, 3D proliferation; read-out: 3D WiDr pGI50 (converted)
[4] = equilibrium dialysis 4 hours at 37° C.
[5] = equilibrium dialysis 4 hours 37° C.

Compound | IC50 ([1]; Abs) | mPPB (% free) [2, 4] | IC50 [3] | GI50 (WiDr cells) | IC50 ([1]; absolute IC50) | mPPB (% free) [2, 5] | pERK HCT116 (2 hr) Abs pIC50 ([1]; Abs)
O=C(Nc1cc(Oc2ccc3c(c2)CC(c2nc(-c4ccccc4)c[nH]2)CO3)ccn1)C1CC1(F)F (stereo not drawn) [Compound 137, 2,2-difluoro-N-[4-[3-(4-phenyl-1H-imidazol-2-yl)chroman-6-yl]oxy-2-pyridyl]cyclopropanecarboxamide] | 35.5 nM | <0.1 % free | 191 nM | 126 nM |  |  | 
O=C1CCc2c(Oc3ccc4c(c3)CC(c3nc5cc(F)c(F)cc5[nH]3)CO4)ccnc2N1 (stereo not drawn) [Compound 23] |  |  | 257 nM |  | 316 nM | 0.5 % free | 
O=C(Cn1ccnc1)Nc1cc(Oc2ccc3c(c2)CC(c2nc(-c4ccccc4)c[nH]2)CO3)ccn1 (stereo not drawn) [Compound 144] | 45.7 nM | 0.8 % free | 204 nM | 380 nM |  |  | 
O=C(CN1CCOCC1)Nc1cc(Oc2ccc3c(c2)CC(c2nc(-c4ccccc4)c[nH]2)CO3)ccn1 (stereo not drawn) [Compound 149] | 316 nM | 0.14 % free | 1320 nM | 2240 nM |  |  | 
Cc1cc(-c2c[nH]c(C3COc4ccc(Oc5ccnc6c5CCC(=O)N6)cc4C3)n2)ccn1 (stereo not drawn) [Compound 117, 5-[3-[4-(2-methyl-4-pyridyl)-1H-imidazol-2-yl]chroman-6-yl]oxy-3,4-dihydro-1H-1,8-naphthyridin-2-one] | 107 nM | 2.3 % free | 724 nM | 708 nM |  |  | 
CCc1cc(-c2c[nH]c(C3COc4ccc(Oc5ccnc6c5CCC(=O)N6)cc4C3)n2)n(C2CC2)n1 (stereo not drawn) [Compound 113, 5-[3-[4-(2-cyclopropyl-5-ethyl-pyrazol-3-yl)-1H-imidazol-2-yl]chroman-6-yl]oxy-3,4-dihydro-1H-1,8-naphthyridin-2-one] | > 1000 nM | 1.6 % free | 4680 nM |  |  |  | 
O=C1CCc2c(Oc3ccc4c(c3)CC(c3nc(-c5cccnc5C(F)(F)F)c[nH]3)CO4)ccnc2N1 (stereo not drawn) [Compound 128, 5-[3-[4-[2-(trifluoromethyl)-3-pyridyl]-1H-imidazol-2-yl]chroman-6-yl]oxy-3,4-dihydro-1H-1,8-naphthyridin-2-one] | 389 nM | 1.2 % free | 832 nM |  |  |  | 
N#Cc1ccc2[nH]c(C3COc4ccc(Oc5ccnc6c5CCC(=O)N6)cc4C3)nc2c1 (stereo not drawn) [Compound 24] |  |  | 562 nM |  | 407 nM | 1.9 % free | 
CN1CCC(C(=O)Nc2cc(Oc3ccc4c(c3)CC(c3nc(-c5ccccc5)c[nH]3)CO4)ccn2)CC1 (stereo not drawn) [Compound 147, 1-methyl-N-[4-[3-(4-phenyl-1H-imidazol-2-yl)chroman-6-yl]oxy-2-pyridyl]piperidine-4-carboxamide] | 324 nM | 0.8 % free | 631 nM | 1380 nM |  |  | 
O=C1CCc2c(Oc3ccc4c(c3)CC(c3nc(-c5ccnc(C(F)(F)F)c5)c[nH]3)CO4)ccnc2N1 (stereo not drawn) [Compound 8, 5-[3-[4-[2-(trifluoromethyl)-4-pyridyl]-1H-imidazol-2-yl]chroman-6-yl]oxy-3,4-dihydro-1H-1,8-naphthyridin-2-one] |  | 1.1 % free | 316 nM | 191 nM | 174 nM | 1.1 % free | 6.76
c1ccc(-c2c[nH]c(C3COc4ccc(Oc5ccnc(Nc6ccccn6)c5)cc4C3)n2)cc1 (stereo not drawn) [Compound 140, 4-[3-(4-phenyl-1H-imidazol-2-yl)chroman-6-yl]oxy-N-(2-pyridyl)pyridin-2-amine] | > 1000 nM | 0.2 % free | 5890 nM | 1910 nM |  |  | 
COc1cc(-c2c[nH]c(C3COc4ccc(Oc5ccnc6c5CCC(=O)N6)cc4C3)n2)ccn1 (stereo not drawn) [Compound 104] |  | 1.5 % free |  | 1150 nM |  |  | 6.50
COc1cc(-c2c[nH]c(C3COc4ccc(Oc5ccnc6c5CCC(=O)N6)cc4C3)n2)ccn1 (stereo not drawn) [Compound 19, 5-[3-[4-(2-methoxy-4-pyridyl)-1H-imidazol-2-yl]chroman-6-yl]oxy-3,4-dihydro-1H-1,8-naphthyridin-2-one] |  |  | 1620 nM |  | 316 nM | 1.5 % free | 
O=C1CCc2c(Oc3ccc4c(c3)CC(c3nc5cc(C(F)(F)F)ccc5[nH]3)CO4)ccnc2N1 (stereo not drawn) [Compound 22, 5-[3-[6-(trifluoromethyl)-1H-benzimidazol-2-yl]chroman-6-yl]oxy-3,4-dihydro-1H-1,8-naphthyridin-2-one] |  |  | 20 nM |  | 141 nM | <0.1 % free | 
O=C1CCc2c(Oc3ccc4c(c3)CC(c3nc(-c5cccc(C(F)(F)F)c5)c[nH]3)CO4)ccnc2N1 (stereo not drawn) [Compound 12, 5-[3-[4-[3-(trifluoromethyl)phenyl]-1H-imidazol-2-yl]chroman-6-yl]oxy-3,4-dihydro-1H-1,8-naphthyridin-2-one] |  |  | 42.7 nM |  | 257 nM | <0.1 % free | 
Cc1cc(-c2c[nH]c(C3COc4ccc(Oc5ccnc6c5CCC(=O)N6)cc4C3)n2)n(C2CC2)n1 (stereo not drawn) [Compound 114, 5-[3-[4-(2-cyclopropyl-5-methyl-pyrazol-3-yl)-1H-imidazol-2-yl]chroman-6-yl]oxy-3,4-dihydro-1H-1,8-naphthyridin-2-one] | > 1000 nM | 2.0 % free | 2570 nM |  |  |  | 
Cc1cc(-c2c[nH]c(C3COc4ccc(Oc5ccnc6c5CCC(=O)N6)cc4C3)n2)n(C(C)C)n1 (stereo not drawn) [Compound 112, 5-[3-[4-(2-isopropyl-5-methyl-pyrazol-3-yl)-1H-imidazol-2-yl]chroman-6-yl]oxy-3,4-dihydro-1H-1,8-naphthyridin-2-one] | > 1000 nM | 2.0 % free | 1780 nM |  |  |  | 
Cn1nc(C2CC2)cc1-c1c[nH]c(C2COc3ccc(Oc4ccnc5c4CCC(=O)N5)cc3C2)n1 (stereo not drawn) [Compound 125, 5-[3-[4-(5-cyclopropyl-2-methyl-pyrazol-3-yl)-1H-imidazol-2-yl]chroman-6-yl]oxy-3,4-dihydro-1H-1,8-naphthyridin-2-one] | 355 nM |  | 4470 nM | 15100 nM |  |  | 
O=C(Nc1cc(Oc2ccc3c(c2)CC(c2nc(-c4ccccc4)c[nH]2)CO3)ccn1)C1(F)CC1 (stereo not drawn) [Compound 138] | 275 nM | <0.1 % free | 1620 nM |  |  |  | 
O=C1CCc2c(Oc3ccc4c(c3)CN(c3nc(-c5ccccc5)n[nH]3)CC4)ccnc2N1 [Compound 44, 5-[[2-(3-phenyl-1H-1,2,4-triazol-5-yl)-3,4-dihydro-1H-isoquinolin-7-yl]oxy]-3,4-dihydro-1H-1,8-naphthyridin-2-one hydrochloride] |  |  | 1200 nM |  | 537 nM | 0.9 % free | 
Cc1cc2nc(C3COc4ccc(Oc5ccnc6c5CCC(=O)N6)cc4C3)[nH]c2cc1C (stereo not drawn) [Compound 29] |  |  | 32.4 nM |  | 132 nM | 0.6 % free | 
O=C1CCc2c(Oc3ccc4c(c3)CC(c3nc5cc(C(F)(F)F)ncc5[nH]3)CO4)ccnc2N1 (racemic) [Compound 32] |  |  | 251 nM |  | 229 nM | 3.2 % free | 
O=C1CCc2c(Oc3ccc4c(c3)CC(c3nc5cc(Cl)ccc5[nH]3)CO4)ccnc2N1 (stereo not drawn) [Compound 25] |  |  | 115 nM |  | 85.1 nM | 1.5 % free | 
O=C(Nc1cc(Oc2ccc3c(c2)CC(c2nc(-c4ccccc4)c[nH]2)CO3)ccn1)C1CC1 (stereo not drawn) [Compound 45, N-[4-[3-(4-phenyl-1H-imidazol-2-yl)chroman-6-yl]oxy-2-pyridyl]cyclopropanecarboxamide] |  |  | 162 nM |  | 27.5 nM | 0.2 % free | 
O=C1CCc2c(Oc3ccc4c(c3)CC(c3nc(-c5ccc(C(F)(F)F)nc5)c[nH]3)CO4)ccnc2N1 (stereo not drawn) [Compound 127, 5-[3-[4-[6-(trifluoromethyl)-3-pyridyl]-1H-imidazol-2-yl]chroman-6-yl]oxy-3,4-dihydro-1H-1,8-naphthyridin-2-one] | 417 nM | 0.2 % free | 851 nM |  |  |  | 
O=C1CCc2c(Oc3ccc4c(c3)CN(C(=O)Nc3ccc(C(F)(F)F)cc3)CC4)ccnc2N1 [Compound 47] |  |  | 229 nM |  | 69.2 nM | 0.3 % free | 
CN(C)c1ccc2[nH]c(C3COc4ccc(Oc5ccnc6c5CCC(=O)N6)cc4C3)nc2c1 (stereo not drawn) [Compound 26] |  |  | 64.6 nM |  | 417 nM | 1 % free | 
O=C(Nc1cc(Oc2ccc3c(c2)CC(c2nc(-c4ccccc4)c[nH]2)CO3)ccn1)C1CC(F)(F)C1 (stereo not drawn) [Compound 139] | 200 nM | <0.1 % free | 1070 nM |  |  |  | 
O=C1CCc2c(Oc3ccc4c(c3)CN(C(=O)Nc3cccc(C(F)(F)F)c3)CC4)ccnc2N1 [Compound 50] |  |  | 269 nM |  | 46.8 nM | 1.6 % free | 
